Test results from patent publication US20220412956A1, “METHODS FOR ASSESSING TOXICITY OF A COMPOUND” (The Chinese University of Hong Kong, priority 2021, published 2022).
Entries after “also recorded” stand apart in the source; their conditions may differ. Like-named read-outs stand apart in the source and are kept apart here.

Experiments:
hiPSC-CMs [1] = test system: hiPSC-CMs
hiPSC-CMs [2] = experiment: Mitochondrial morphology, Mitotracker staining (elongated / punctate / perinuclear); design: perinuclear mitochondria: dose or concentration left out as unconfirmed; conditions: for mitochondrial morphology (MTDR dye): FIG. 8B, treated CMs vs control; for proportion of cells with healthy elongated mitochondria: FIG. 8C; for proportion of cells with punctate, fragmented mitochondria / proportion of punctate mitochondria / proportion of elongated mitochondria: 3 days; for proportion of cells with punctate, fragmented mitochondria: control 21.0±5.9%; for proportion of cells with punctate mitochondria / elongated mitochondria: 3 days hypoxic treatment + 3 days recovery; for proportion of cells with punctate mitochondria: control 46.1±[…]; for elongated mitochondria: control 47.4±4.9%; for proportion of punctate mitochondria / proportion of elongated mitochondria: hypoxic; for proportion of punctate mitochondria: control 37.3±6.1%; for proportion of elongated mitochondria: control 45.1±7.8%
hiPSC-CMs [3] = test system: hiPSC-CMs; remark: listed apart in the source
hiPSC-CMs [4] = test system: hiPSC-CMs; remark: listed apart in the source
[5] = test system: HT29, HCT116, HepG2 and PLC/PRF/5; conditions: high doses of 10 or 20 μM; cited from earlier work
hiPSC-CMs [6] = experiment: Mitochondrial membrane potential (Δψm), TMRE; format: cell-based, human; conditions: 3 days, treated vs control
Procedure: Δψm was measured using the tetramethylrhodamine, ethyl ester (TMRE), a potentiometric dye whose fluorescent intensity is proportional to the mitochondrial potential. CMs were plated into Matrigel-coated surfaces in RPMI/B27 medium. Cells were incubated with TMRE (25 nM; Thermo Fisher Scientific) for 30 min at 37° C., after which they were washed with DPBS and intensity of fluorescence was measured using the Synergy HTX plate-reader (Biotek, Winooski, Vt.) with excitation and emission wavelengths of 540 nm and 590 nm.

[7] = test system: ND1, ND5, SDHA, COX6A2, ATP6, ACADVL mRNA; experiment: qRT-PCR of genes important for mitochondrial function; format: cell-based, human; conditions: 3 days, normoxic or hypoxic, normalised to B2M
Procedure: Total RNA was extracted using Trizol Reagent according to the manufacturer's instructions (Thermo Fisher Scientific). Extracted RNA was reverse transcribed using PrimeScript RT Master Mix (Takara). Quantitative RT-PCR of target genes was performed with GoTaq® qPCR Master Mix (Promega) using an QuantStudio™ 12K Flex. Gene transcript abundance was normalised to B2M and then to that of the untreated sample to control for biological variations among the different sets of samples.
Of the ETC genes, ND1, ND5 and ATP6 are encoded by the mitochondrial genome, while COX6A2 and SDHA are encoded by the nuclear genome. […] Overall, the general repression of ETC gene transcripts was consistent with and might contribute to the reduced redox potential observed (FIG. 1A).

hiPSC-CMs [8] = experiment: Mitochondrial mass, mitotracker dye (MTDR) intensity; format: cell-based, human; conditions: 0.1-12.5 μM, 3 days, normoxic and hypoxic
Procedure: (§1) Cells were incubated with Mitotracker Deep Red FM dye (200 nM; Thermo Fisher Scientific) and Hoescht 33342 dye (5 μg/ml; Thermo Fisher Scientific) for 30 min at 37° C., after which they were fixed with 4% paraformaldehyde at room temperature for 15 min followed by 15 min wash with PBS and imaged with a Leica THUNDER Imager microscope or Nikon AIR HD25 confocal microscope.
The first consisted of densely organised, elongated mitochondrial networks spread throughout the cytoplasm and this is considered to represent a healthy balance of fission and fusion. The second had punctate, fragmented mitochondria consistent with increased fission.

hPSC-CMs = conditions: cited from earlier work
hiPSC-CMs [9] = conditions: human
hiPSC-CMs [10] = experiment: Nuclear condensation / nuclear morphology / cell number, Hoescht staining; format: cell-based, human
Procedure: as §1
Similarly, nuclei were scored as normal (relatively large nuclei with regular shape) or condensed (intensely stained nuclei with irregular shape) by a technician blinded to the identities of the samples.
Nuclear condensation is a sign of apoptosis and manifest as brightly-stained, small and ‘condensed’ nuclei.

[11] = cited from earlier work
hiPSC-CMs [12] = experiment: In vitro hiPSC-CM cardiotoxicity model, overall; format: cell-based, human; conditions: 0.1 μM and 0.5 μM
Text: Importantly, these changes persisted and worsened after the withdrawal of this drug.
Human iPSC-CMs were exposed to remdesivir under normal and hypoxic conditions for three days. There is a paucity of data which directly correlates oxygen saturation in vivo with oxygen concentration in vitro. […] Human iPSC-CMs exposed to 2.5% 02 were viable, beat and were morphologically indistinguishable from hiPSC-CMs cultured under normoxic (20% 02) conditions.
Importantly, these abnormalities persisted after cessation of treatment, culminating in increased cell death.

[13] = cited from earlier work; for peak plasma concentration: healthy adult volunteers; for Cmax: healthy volunteers, read-out: Cmax / peak plasma concentration
[14] = target: human mitochondrial RNA polymerase (Homo sapiens, UniProt O00411); conditions: purified enzyme; cited from earlier work
human mitochondrial RNA polymerase, sequence (O00411 42-1230): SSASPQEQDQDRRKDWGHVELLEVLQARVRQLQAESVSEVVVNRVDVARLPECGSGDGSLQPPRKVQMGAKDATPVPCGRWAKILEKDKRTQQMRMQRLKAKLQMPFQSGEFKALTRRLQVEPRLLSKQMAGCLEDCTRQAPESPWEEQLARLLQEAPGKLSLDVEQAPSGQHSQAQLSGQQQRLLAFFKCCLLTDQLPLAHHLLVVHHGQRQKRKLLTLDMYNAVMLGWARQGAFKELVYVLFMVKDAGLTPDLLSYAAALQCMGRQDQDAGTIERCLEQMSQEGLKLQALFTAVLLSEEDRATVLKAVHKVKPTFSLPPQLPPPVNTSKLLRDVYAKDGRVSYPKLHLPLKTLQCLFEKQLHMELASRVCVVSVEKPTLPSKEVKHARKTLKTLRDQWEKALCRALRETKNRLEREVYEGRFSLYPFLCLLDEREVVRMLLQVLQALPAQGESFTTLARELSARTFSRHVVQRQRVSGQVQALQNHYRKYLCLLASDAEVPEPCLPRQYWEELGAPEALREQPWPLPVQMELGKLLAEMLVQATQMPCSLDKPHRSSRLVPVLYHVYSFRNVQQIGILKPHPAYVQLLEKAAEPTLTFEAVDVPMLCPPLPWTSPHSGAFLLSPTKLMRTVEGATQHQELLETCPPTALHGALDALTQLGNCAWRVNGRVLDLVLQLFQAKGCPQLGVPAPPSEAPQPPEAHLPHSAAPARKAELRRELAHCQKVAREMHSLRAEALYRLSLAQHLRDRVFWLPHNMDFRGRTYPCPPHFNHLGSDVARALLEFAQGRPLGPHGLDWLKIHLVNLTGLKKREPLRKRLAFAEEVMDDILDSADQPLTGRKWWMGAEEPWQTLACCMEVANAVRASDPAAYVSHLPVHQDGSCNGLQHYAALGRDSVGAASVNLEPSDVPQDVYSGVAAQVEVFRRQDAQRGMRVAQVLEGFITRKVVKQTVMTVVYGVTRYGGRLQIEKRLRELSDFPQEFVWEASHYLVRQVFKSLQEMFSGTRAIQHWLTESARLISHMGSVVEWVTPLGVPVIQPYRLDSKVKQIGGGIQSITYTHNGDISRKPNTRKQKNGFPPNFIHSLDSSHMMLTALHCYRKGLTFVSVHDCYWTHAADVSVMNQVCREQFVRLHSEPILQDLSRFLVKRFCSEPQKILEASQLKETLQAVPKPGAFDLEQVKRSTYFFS

[15] = co-treatment with 12.5 μM remdesivir

## NC(=O)c1ncn([C@@H]2O[C@H](CO)[C@@H](O)[C@H]2O)n1 [ribavirin]
hiPSC-CMs [1]
  proportion of cells with healthy elongated mitochondria: did not have noticeable effect
hiPSC-CMs [2]
  mitochondrial morphology (MTDR dye): primarily had elongated mitochondria

## β-D-N4-hydroxycytidine
hiPSC-CMs [2]
  mitochondrial morphology (MTDR dye): punctate (arrowhead) or perinuclear (arrow) mitochondria
  proportion of cells with healthy elongated mitochondria: reduced

## COc1cc(-n2c(=S)[nH]c3ccccc3c2=O)c(Cl)cc1Cl [mdivi-1]
hiPSC-CMs [3]; co-treatment with 2.5 μM remdesivir, normoxic and hypoxic
  redox potential: restored redox potential
hiPSC-CMs [3]; [15]
  redox potential: did not have noticeable effect
hiPSC-CMs [2]; MD 15 mM, (FIG. 5B)
  proportion of cells with elongated mitochondria: increased the proportion of cells with elongated mitochondria
hiPSC-CMs [2]; co-treatment with 2.5 μM remdesivir, normoxic
  formation of elongated mitochondria vs remdesivir alone: significantly promoted the formation of elongated mitochondria
hiPSC-CMs [2]; [15]
  protection of mitochondrial morphology: could only significantly protect hiPSC-CMs under hypoxic but not normoxic conditions
hiPSC-CMs [2]; co-treatment with remdesivir, hypoxia
  proportion of cells with punctate mitochondria vs remdesivir alone: corresponding decrease
hiPSC-CMs [4]; MD 15 mM co-treatment vs remdesivir alone (FIG. 5D)
  sarcomeres (MLC2V-eGFP): more striated sarcomeres
hiPSC-CMs [4]; co-treatment with 2.5 μM and 12.5 μM remdesivir
  sarcomere arrangement: improved the sarcomere arrangement

## CCC(CC)COC(=O)[C@H](C)N[P@](=O)(OC[C@H]1O[C@@](C#N)(c2ccc3c(N)ncnn23)[C@H](O)[C@@H]1O)Oc1ccccc1 [remdesivir]
[5]
  mitochondrial toxicity: demonstrated
hiPSC-CMs [6]
  depolarisation of mitochondrial membrane potential (Δψm): No statistically significant decrease
hiPSC-CMs [3]; 0.1 μM and 0.5 μM, 3 days, normoxic and hypoxic
  effect on redox potential: negligible effects
hiPSC-CMs [3]; 2.5 μM, 3 days hypoxic treatment + 3 days recovery without drug
  decrease of redox potential: 41.0±8.7%
hiPSC-CMs [3]; 2.5 μM, 3 days, hypoxic (2.5% O2)
  decrease of redox activity: 22.5±5.4%
hiPSC-CMs [3]; 2.5 μM, 3 days, normoxic
  decrease of redox activity: 21.0±3.9%
hiPSC-CMs [3]; 12.5 μM, 3 days hypoxic treatment + 3 days recovery without drug
  decrease of redox potential: 54.6±8.5%
hiPSC-CMs [3]; 12.5 μM, 3 days normoxic treatment + 3 days recovery without drug
  decrease of redox potential: 44.1±8.1%
hiPSC-CMs [3]; 12.5 μM, 3 days, hypoxic (2.5% O2)
  decrease of redox activity: 28.7±6.9%
hiPSC-CMs [3]; 12.5 μM, 3 days, normoxic
  decrease of redox activity: 35.9±4.0%
hiPSC-CMs [2]; 0.5 μM, 3 days treatment + 3 days recovery
  mitochondrial morphology, treated vs control: no significant difference
hiPSC-CMs [2]; 0.5 μM, normoxic
  proportion of cells with punctate, fragmented mitochondria: 44.4±7.1%
hiPSC-CMs [2]; 2.5 μM
  proportion of cells with punctate mitochondria: 66.1±1.1%
  elongated mitochondria: 19.7±2.5%
  proportion of punctate mitochondria: 64.4±4.1%
  proportion of elongated mitochondria: 18.7±3.0%
hiPSC-CMs [2]; 2.5 μM, normoxic
  proportion of cells with punctate, fragmented mitochondria: 57.3±7.2%
hiPSC-CMs [2]; 12.5 μM
  proportion of cells with punctate mitochondria: 65.5±6.6%
  elongated mitochondria: 4.6±2.1%
  proportion of punctate mitochondria: 58.9±8%
  proportion of elongated mitochondria: 17.8±4.2%
hiPSC-CMs [2]; 12.5 μM, 3 days treatment + 3 days recovery (follows the hypoxic data), control 6.5±1.5%
  proportion of cells with perinuclear mitochondria: 29.9±5.7%
hiPSC-CMs [2]; 12.5 μM, normoxic
  proportion of cells with punctate, fragmented mitochondria: 64.4±9.5%
hiPSC-CMs [2]; 3 days treatment + 3 days recovery (FIG. 4C)
  perinuclear mitochondria: enriched
hiPSC-CMs [2]
  proportion of cells with healthy elongated mitochondria: reduced
hiPSC-CMs [4]; 0.5 μM, 3 days, hypoxia
  sarcomeric arrangement: induced the thinning and truncation of myofibrils
hiPSC-CMs [4]; 2.5 μM and 12.5 μM, 3 days treatment + 3 days recovery
  sarcomeric arrangement: disorganised sarcomeric arrangement
hiPSC-CMs [4]; 0.1 and 0.5 μM, 3 days, normoxic
  sarcomeric arrangement: did not have any noticeable effect
hiPSC-CMs [4]; 2.5 and 12.5 μM, 3 days, normoxic and hypoxic
  sarcomeric arrangement: greatly disorganised myofibrils
[7]
  ATP6 mRNA expression: dose-dependently and significantly reduced
  COX6A2 mRNA expression: dose-dependently and significantly reduced
  ND1 mRNA expression: dose-dependently and significantly reduced
  ND5 mRNA expression: dose-dependently and significantly reduced
hiPSC-CMs [8]
  mitochondrial mass: not statistically different
hPSC-CMs
  QT intervals: prolong QT intervals
hiPSC-CMs [9]
  spontaneous firing frequency: 0.36±0.07 Hz
hiPSC-CMs [10]; 2.5 μM and 12.5 μM, three days after treatment (recovery)
  proportion of condensed nuclei: dose dependent increase
hiPSC-CMs [10]; 3 days, all samples
  cell number: No significant difference
hiPSC-CMs [10]; immediately after 3 days of treatment
  number / proportion of cells with condensed nuclei: did not reveal any significant increase; also recorded: no statistically significant difference
[11]; WHO Solidarity trial, comparator 0.4%
  rate of cardiac death: 0.3%
[11]; one clinical study, placebo 0.2%
  serious atrial fibrillation: 0.9%
[11]; one clinical study, placebo 1.4%
  risk of cardiac arrest: 1.9%
hiPSC-CMs [12]
  persistent functional alterations: did not induce persistent functional alterations
[13]; day 1 (200 mg)
  peak plasma concentration: 5.4 µg/mL
  Cmax: 8.9 µM
[13]; day 5
  peak plasma concentration: 2.6 µg/mL
  Cmax: 4.3 µM

## COc1nc(N)nc2c1ncn2[C@@H]1O[C@H](COP(=O)(N[C@@H](C)C(=O)OCC(C)(C)C)Oc2cccc3ccccc23)[C@@H](O)[C@@]1(C)O (some centres unmarked) [BMS-986094]
hiPSC-CMs [2]
  mitochondrial morphology (MTDR dye): punctate (arrowhead) or perinuclear (arrow) mitochondria
  proportion of cells with healthy elongated mitochondria: reduced

## N#C[C@@]1(c2ccc3c(N)ncnn23)O[C@H](COP(=O)(O)OP(=O)(O)OP(=O)(O)O)[C@@H](O)[C@H]1O [remdesivir-triphosphate]
[14]
  selectivity value (discrimination against the analogue): ~500 fold
